Values of other authors in patent publication US20070042062A1, “Novel anti-diabetic herbal formulation” (COUNCIL OF SCIENTIFIC AND INDUSTRIAL RESEARCH., priority 2004, published 2007).

What was measured:
[1] = tested on: male volunteers; design: dose or concentration left out as unconfirmed; settings: for 4 weeks
[2] = tested on: patients suffering from chronic antieri or ureitis (CAU); settings: 375 mg three times a day for 12 weeks, oral; curcumin alone
[3] = tested on: carrageenin-induced acute oedema; settings: mice
[4] = tested on: monkey; settings: in vivo

## COc1cc(/C=C/C(=O)CC(=O)/C=C/c2ccc(O)c(OC)c2)ccc1O [Curcumin, curcumin]
[1]
  side effect in phase-I trials: did not produce any side effect
[2]
  clinical outcome in CAU patients: all the patients who received curcumin alone improved
[3]
  oral ED50 against carrageenin-induced acute oedema: 100.2 mg/kg
[4]
  toxicity on single or repeated oral administration: did not produce any toxicity
